Assay results published in US6423376B1, “Tartaric acid diesters as biodegradable surfactants” (Air Products and Chemicals, Inc., priority 2000, dated 2002).
Counter-ions that a name gives are not always drawn.

Key:
[1] = Foam test based upon ASTM D 1173-53; assay type: physicochemical; conditions: 0.1 wt % solution
Excerpt: The foaming properties of a 0.1 wt % solution of the comparative example (nonylphenol 9.5 mole ethoxylate) and various dialkyltartrates (diisopropyl-(D)-tartrate, dibutyl-L-tartrate. diisobutyl-DL-tartrate, di-sec-butyl-DL-tartrate, dipentyl-DL-tartrate, diisoamyl-DL-tartrate, di-(2-methyl-butyl)-DL-tartrate, dineopentyl-DL-tartrate, dihexyl-DL-tartrate, di-(4-methyl-2-pentyl)-DL-tartrate, dibenzyl-DL-tartrate and di-(2-ethyl-hexyl)-DL-tartrate) were examined using a procedure based upon ASTM D 1173-53. In this test, a 0.1 wt % solution of the surfactant is added from an elevated foam pipette to a foam receiver containing the same solution. The foam height is measured at the completion of the addition (“Initial Foam Height”) and the time required for the foam to dissipate at the air-liquid interface (“Time to 0 Foam”) is recorded. This test provides a comparison between the foaming characteristics of various surfactants. In general, in coatings, inks, adhesives and agricultural formulations, foam is undesirable because is complicates handling and can lead to coating and print defects, and to inefficient application of agricultural materials.

[2] = Dynamic surface tension of aqueous solutions, maximum bubble pressure method; assay type: physicochemical; conditions: for limiting γ (0.1 b/s) / limiting γ (1 b/s) / limiting γ (6 b/s) / limiting γ (20 b/s): lowest surface tension in water; for pC20: negative logarithm of molar concentration giving 52.1 dyne/cm at 0.1 b/s; for decrease in the limiting surface tension: in comparison to dipentyl-L-tartrate
Excerpt: where R1 and R2 are independently a C4 to C6 alkyl group, but preferably are the same; provided that when the water-based composition is an ink, R1 and R2 are independently a C5 or C6 alkyl group. […] The maximum-bubble-pressure method of measuring surface tension is described in Langmuir 1986, 2, 428-432, which is incorporated by reference.
In the following Examples dynamic surface tension data were obtained for aqueous solutions of various compounds using the maximum bubble pressure method at bubble rates from 0.1 bubbles/second (b/s) to 20 b/s. […] In practical terms, high bubble rates correspond to high printing speeds in lithographic printing, high spray or roller velocities in coating applications, and rapid application rates for agricultural products.
Dynamic surface tension data were obtained for a 0.1 wt % aqueous solution of the 9.5 mole ethoxylate of nonylphenol using the maximum bubble pressure method at bubble rates from 0.1 bubbles/second (b/s) to 20 b/s.
(§1) Solutions of the materials of Examples 1-12 in distilled water were prepared. […] The pC20 value is defined as the negative logarithm of the molar concentration of surfactant required to decrease the surface tension of an aqueous solution to 52.1 dyne/cm, that is, 20 dyne/cm below that of pure water when the measurement is performed at 0.1 b/s. This value is a measure of the efficiency of a surfactant. […] In addition, the relative efficiency of surfactants can be obtained by comparing surface tension reduction of solutions containing the same amount of different surfactants. Such data is given for 0.1 wt % solutions of the tartrates at 1.0 and 6.0 bubbles/second (b/s). The solubility limit was determined by intersection of the linear portion of a surface tension/In concentration curve with the limiting surface tension as is described in many textbooks. The limiting surface tensions at 0.1, 1, 6 and 20 b/s represent the lowest surface tensions in water which can be achieved at the given surface creation rates for a given surfactant regardless of the amount of surfactant used and is used to evaluate the effectiveness of a surfactant. These values give information about the relative ability to a surfactant to reduce surface defects under near-equilibrium conditions (0.1 b/s) through very dynamic conditions (20 b/s). Lower surface tensions would allow the elimination of defects upon application of a formulation onto lower energy surfaces.

[3] = Solubility limit in water from surface tension/ln concentration curve; assay type: physicochemical; conditions: in distilled water
Procedure: as §1

| Compound | initial foam [1] [cm] | time to zero foam [1] [s] | solubility limit [3] | γ (0.1 wt % solution) (1 b/s) ([2]; 1 b/s) [Dyne/cm] | γ (0.1 wt % solution) (6 b/s) ([2]; 6 b/s) [Dyne/cm] | limiting γ (0.1 b/s) ([2]; 0.1 b/s) [Dyne/cm] | limiting γ (1 b/s) ([2]; 1 b/s) [Dyne/cm] | limiting γ (6 b/s) ([2]; 6 b/s) [Dyne/cm] | limiting γ (20 b/s) ([2]; 20 b/s) [Dyne/cm] | pC20 [2] | time to zero foam ([1]; unit not given) | also measured |
| --- | --- | --- | --- | --- | --- | --- | --- | --- | --- | --- | --- | --- |
| 9.5 mole ethoxylate of nonylphenol [reference compound] | 4.5 | >300 |  |  |  |  |  |  |  |  |  | Dynamic Surface Tension (0.1 b/s) ([2]; 0.1 wt % aqueous solution, 0.1 b/s): 33.2 dyne/cm; Dynamic Surface Tension (1 b/s) ([2]; 0.1 wt % aqueous solution, 1 b/s): 36.7 dyne/cm; Dynamic Surface Tension (6 b/s) ([2]; 0.1 wt % aqueous solution, 6 b/s): 44.3 dyne/cm; Dynamic Surface Tension (15 b/s) ([2]; 0.1 wt % aqueous solution, 15 b/s): 52.8 dyne/cm; Dynamic Surface Tension (20 b/s) ([2]; 0.1 wt % aqueous solution, 20 b/s): 56.2 dyne/cm |
| CC(C)(C)COC(=O)C(O)C(O)C(=O)OCC(C)(C)C (racemic) (as salt: tartrate) [Example 8, Dineopentyl-DL-tartrate] |  |  |  |  |  |  |  |  |  |  |  | melting point: 75 °C |
| CCCCOC(=O)C(O)C(O)C(=O)OCCCC (racemic) [Example 2, Dibutyl-L-tartrate] |  |  | 1.1 Weight % |  |  |  |  |  |  |  |  |  |
| CC(C)COC(=O)C(O)C(O)C(=O)OCC(C)C (racemic) [Example 3, Diisobutyl-DL-tartrate] | 0.5 | 0.3 | 0.7 Weight % | 50.6 | 51.4 | 38.7 | 39.3 | 39.8 | 40.8 | 2.6 |  |  |
| CCC(C)OC(=O)C(O)C(O)C(=O)OC(C)CC (racemic) [Example 4, Di-sec-butyl-DL-tartrate] | 1.7 | 0.4 | 1.7 Weight % | 52.2 | 53.2 | 35.1 | 35.0 | 35.0 | 36.0 | 2.5 |  |  |
| CCCCCOC(=O)C(O)C(O)C(=O)OCCCCC (racemic) [Example 5, Dipentyl-DL-tartrate] | 0 |  | 0.1 Weight % | 36.8 | 37.8 | 35.9 | 36.8 | 37.8 | 41.6 | 3.3 | 0 |  |
| CC(C)CCOC(=O)C(O)C(O)C(=O)OCCC(C)C (racemic) [Example 6, Diisoamyl-DL-tartrate] | 0 |  | 0.1 Weight % | 35.4 | 36.7 | 34.9 | 35.7 | 37.2 | 40.3 | 3.7 | 0 | decrease in the limiting surface tension ([2]; 20 b/s): 1.3 dyne/cm |
| CCC(C)COC(=O)C(O)C(O)C(=O)OCC(C)CC (racemic) [Example 7, Di(2-methyl-butyl)-DL-tartrate] | 0 |  | 0.1 Weight % | 39.0 | 39.8 | 35.6 | 36.0 | 36.0 | 38.5 | 3.2 | 0 |  |
| CC(C)(C)COC(=O)C(O)C(O)C(=O)OCC(C)(C)C (racemic) [Example 8, Dineopentyl-DL-tartrate] | 0 |  | 0.2 Weight % | 38.7 | 39.8 | 35.1 | 35.5 | 36.1 | 38.4 | 3.5 | 0 | decrease in the limiting surface tension ([2]; 20 b/s): 3.2 dyne/cm |
| CCCCCCOC(=O)C(O)C(O)C(=O)OCCCCCC (racemic) [Example 9, Dihexyl-DL-tartrate] | 1.3 | 0.1 | 0.01 Weight % | 59.0 | 65.9 | 40.5 | 59.0 | 65.9 | 70.0 | 3.8 |  |  |
| CC(C)CC(C)OC(=O)C(O)C(O)C(=O)OC(C)CC(C)C (racemic) [Example 10, Di(4-methyl-2-pentyl)-DL-tartrate] | 0.8 | 0.3 | 0.02 Weight % | 42.2 | 46.8 | 41.3 | 49.9 | 56.1 | 68.2 | 3.7 |  |  |
| O=C(OCc1ccccc1)C(O)C(O)C(=O)OCc1ccccc1 (racemic) [Example 11, Dibenzyl-DL-tartrate] | 1.3 | 0.1 | 0.05 Weight % | 67.8 | 70.0 | 64.0 | 68.1 | 69.8 | 72.5 | 1.0 |  |  |
| CCCCC(CC)COC(=O)C(O)C(O)C(=O)OCC(CC)CCCC (racemic) [Example 12, Di(2-ethylhexyl)-DL-tartrate] | 0 |  | 0.06 Weight % | 69.8 | 70.5 | 66.7 | 69.8 | 70.5 | 71.3 | 1.6 | 0 | limiting γ (0.1 b/s) at 5 wt. % ([2]; 5 wt. %, cloudy mixture, 0.1 b/s): 38.5 dyne/cm; limiting γ (1 b/s) at 5 wt. % ([2]; 5 wt. %, cloudy mixture, 1 b/s): 40.3 dyne/cm; limiting γ (6.0 b/s) at 5 wt. % ([2]; 5 wt. %, cloudy mixture, 6.0 b/s): 41.2 dyne/cm; limiting γ (20 b/s) at 5 wt. % ([2]; 5 wt. %, cloudy mixture, 20 b/s): 44.8 dyne/cm |
| CC(C)OC(=O)C(O)C(O)C(=O)OC(C)C [Example 1, Diisopropyl-D-tartrate] |  |  | >5% Weight % |  |  |  |  |  |  |  |  |  |
